Values quoted from earlier work, collected in patent publication US10836764B2, “5-HT2C receptor agonists and compositions and methods of use” (Arena Pharmaceuticals, Inc., priority 2016, dated 2020).
Where two headings read alike, the source gives them in different places.

Legend:
[1] = add on treatment, non-depressed patients with poorly controlled epilepsy; cited from earlier work
[2] = cited from earlier work
[3] = cited from earlier work; remark: listed apart in the source
[4] = 10 mg BID, type 2 diabetes; cited from earlier work
[5] = patients without diabetes, cited from earlier work
[6] = pivotal phase 3 program, up to two years
[7] = patients with type 2 diabetes, BID
[8] = patients without type 2 diabetes

## CN(C)CCCC1(c2ccc(F)cc2)OCc2cc(C#N)ccc21 (centres unmarked) [citalopram]
[1]
  drop in median seizure frequency: 55.6%

## C[C@H]1CNCCc2ccc(Cl)cc21 [lorcaserin, (R)-8-chloro-1-methyl-2,3,4,5-tetrahydro-1H-3-benzazepine]
[2]; phase 3 program
  risk of cardiac valvulopathy: did not increase
[2]; [6]
  patients achieved at least 5% weight loss: About two-thirds
  patients achieved at least 10% weight loss: over one-third
[2]; pivotal phase 3 program
  average weight lost, of their weight: about 8%
[2]; second phase 3 trial
  average weight loss, top quartile of patients: 35 pounds
  average weight loss, top quartile of patients, of body weight: 16%
[3]; [7]
  patients who decreased total daily dose of medications for dyslipidemia: 5.5%
  patients who increased use of medications for dyslipidemia: 3.1%
[3]; patients with type 2 diabetes
  decrease in mean daily doses of sulfonylureas and thiazolidinediones: 16-24%
  patients who decreased total daily dose of antihypertensive medications: 8.2%
  patients who increased total daily dose of antihypertensive medications: 6.6%
[3]; [8]
  patients who decreased total daily dose of antihypertensive medications: 2.2%
  patients who decreased total daily dose of medications for dyslipidemia: 1.3%
  patients who increased total daily dose of antihypertensive medications: 2.2%
  patients who increased use of medications for dyslipidemia: 2.6%
[4]
  reduction in HbAlc: 0.9%
[5]; one study
  HOMA-IR change: −0.4
  fasting insulin change: −3.3 μIU/mL
[5]
  mean fasting glucose change: -0.2 mg/dL
